# Assay results published in PubChem BioAssay AID330 (DTP/NCI, 2004).
# Several values for one entry are separate records, joined by “and”; a condition that tells them apart may be missing. Identical values can stand only once. Inconclusive results and toxic doses are left out.
# Test system: P388 leukemia ip, CD2F1 mice, survival T/C
# Assay: NCI In Vivo Anticancer Drug Screen. Data for tumor model P388 Leukemia (intraperitoneal) in CD2F1 (CDF1) mice
# Settings: endpoint: median survival time, higher = longer survival
# How it was run: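 Mice carrying the transplanted tumor received test compound or vehicle. Survival was recorded in each group, and the value is the treated-group measurement divided by that of the vehicle-treated control group.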
# [1] = dose: 12.5 mg/kg/injection, schedule: Q01DX005 (ip), vehicle: Klucel (hydroxypropylcellulose) (HPC)
# [2] = dose: 25.0 mg/kg/injection, schedule: Q01DX005 (ip), vehicle: Klucel (hydroxypropylcellulose) (HPC)
# [3] = dose: 50.0 mg/kg/injection, schedule: Q01DX005 (ip), vehicle: saline with Tween-80
# [4] = dose: 100.0 mg/kg/injection, schedule: Q01DX005 (ip), vehicle: saline with Tween-80
# [5] = dose: 100.0 mg/kg/injection, schedule: Q04DX003 (ip), vehicle: saline
# [6] = dose: 60.0 mg/kg/injection, schedule: Q01DX005 (ip), vehicle: Klucel (hydroxypropylcellulose) (HPC)
# [7] = dose: 120.0 mg/kg/injection, schedule: Q01DX005 (ip), vehicle: Klucel (hydroxypropylcellulose) (HPC)
# [8] = dose: 240.0 mg/kg/injection, schedule: Q01DX005 (ip), vehicle: Klucel (hydroxypropylcellulose) (HPC)
# [9] = dose: 50.0 mg/kg/injection, schedule: Q01DX005 (ip), vehicle: Klucel (hydroxypropylcellulose) (HPC)
# [10] = dose: 50.0 mg/kg/injection, schedule: Q01DX009 (ip), vehicle: saline with Tween-80
# [11] = dose: 100.0 mg/kg/injection, schedule: Q01DX009 (ip), vehicle: saline with Tween-80
# [12] = dose: 200.0 mg/kg/injection, schedule: Q01DX009 (ip), vehicle: saline with Tween-80
# [13] = dose: 200.0 mg/kg/injection, schedule: Q01DX005 (ip), vehicle: saline with Tween-80
# [14] = dose: 60.0 mg/kg/injection, schedule: Q01DX005 (ip), vehicle: saline with Tween-80
# [15] = dose: 120.0 mg/kg/injection, schedule: Q01DX005 (ip), vehicle: saline with Tween-80
# [16] = dose: 240.0 mg/kg/injection, schedule: Q01DX005 (ip), vehicle: saline with Tween-80
# [17] = dose: 100.0 mg/kg/injection, schedule: Q04DX002 (ip), vehicle: saline with Tween-80
# [18] = dose: 200.0 mg/kg/injection, schedule: Q04DX002 (ip), vehicle: saline with Tween-80
# [19] = dose: 6.25 mg/kg/injection, schedule: Q01DX009 (ip), vehicle: saline with Tween-80
# [20] = dose: 12.5 mg/kg/injection, schedule: Q01DX009 (ip), vehicle: saline with Tween-80
# [21] = dose: 25.0 mg/kg/injection, schedule: Q01DX009 (ip), vehicle: saline with Tween-80
compound,measurement,setting,value
COc1ccc(C2=CC3CCC(C2)N3C)cc1 (stereo not given),T/C,"dose: 6.25 mg/kg/injection, schedule: Q01DX005 (ip), vehicle: Klucel (hydroxypropylcellulose) (HPC)",96 % of control
same,T/C,[1],110 % of control
same,T/C,"dose: 12.5 mg/kg/injection, schedule: Q01DX005 (ip), vehicle: saline",102 % of control
same,T/C,[2],110 % of control and 113 % of control
same,T/C,"dose: 25.0 mg/kg/injection, schedule: Q01DX005 (ip), vehicle: saline",98 % of control
same,T/C,"dose: 50.0 mg/kg/injection, schedule: Q01DX005 (ip), vehicle: saline",94 % of control
N=c1c2ccn(C3OC(CO)C(O)C3O)c2ncn1N (stereo not given),T/C,"dose: 6.25 mg/kg/injection, schedule: Q01DX009 (ip), vehicle: water",117 % of control
same,T/C,"dose: 50.0 mg/kg/injection, schedule: Q01DX009 (ip), vehicle: water",121 % of control
COc1nc2cc3c(cc2n2cccc12)oc1ccccc13,T/C,"dose: 25.0 mg/kg/injection, schedule: Q01DX005 (ip), vehicle: saline with Tween-80",95 % of control
same,T/C,[3],96 % of control
same,T/C,[4],102 % of control
CN1CCC23c4c5ccc(O)c4OC2C(O)C=CC3C1C5 (stereo not given),T/C,"dose: 32.0 mg/kg/injection, schedule: Q01DX009 (ip), vehicle: saline",97 % of control
same,T/C,"dose: 64.0 mg/kg/injection, schedule: Q01DX009 (ip), vehicle: saline",106 % of control
same,T/C,"dose: 128.0 mg/kg/injection, schedule: Q01DX009 (ip), vehicle: saline",95 % of control
CNC(=S)N/N=C\C(C)=N/Nc1ccc(F)cc1,T/C,[5],99 % of control
same,T/C,"dose: 200.0 mg/kg/injection, schedule: Q04DX003 (ip), vehicle: saline",99 % of control
same,T/C,"dose: 400.0 mg/kg/injection, schedule: Q04DX003 (ip), vehicle: saline",94 % of control
S=c1c2ccccc2c(=S)n(-c2ccccc2)n1-c1ccccc1,T/C,[6],91 % of control
same,T/C,[7],94 % of control
same,T/C,[8],92 % of control
CC(C)(C)OC(=O)CS(=O)(=O)Nc1ccccc1O,T/C,[6],106 % of control
same,T/C,[7],86 % of control
same,T/C,[8],97 % of control
CCC(c1ccc(OCc2ccccc2)cc1)c1cc2c(cc1OCCO)OCO2 (stereo not given),T/C,"dose: 50.0 mg/kg/injection, schedule: Q01DX005 (ip), vehicle: distilled water + Tween-80",87 % of control
same,T/C,"dose: 100.0 mg/kg/injection, schedule: Q01DX005 (ip), vehicle: distilled water + Tween-80",87 % of control
same,T/C,"dose: 200.0 mg/kg/injection, schedule: Q01DX005 (ip), vehicle: distilled water + Tween-80",89 % of control
CC(c1ccccc1)N1OC1(C)C (stereo not given),T/C,[1],101 % of control
same,T/C,[2],106 % of control
same,T/C,[9],102 % of control
CN1c2ccccc2N=Cc2c1oc1ccc3ccccc3c1c2=O,T/C,[1],96 % of control
same,T/C,[2],103 % of control
same,T/C,[9],92 % of control
CSC(=S)c1ccc(O)c2ccccc12,T/C,[10],114 % of control
same,T/C,[11],114 % of control
same,T/C,[12],105 % of control
CSc1cnn(-c2ccccc2)[n+]1[O-],T/C,[3],98 % of control
same,T/C,[4],110 % of control
same,T/C,[13],94 % of control
C/C(=C\Cc1cc(O)c(C)cc1O)CC/C=C(\C)Cc1cc(C)co1,T/C,"dose: 4.0 mg/kg/injection, schedule: Q01DX009 (ip), vehicle: Klucel (hydroxypropylcellulose) (HPC)",93 % of control
same,T/C,"dose: 8.0 mg/kg/injection, schedule: Q01DX009 (ip), vehicle: Klucel (hydroxypropylcellulose) (HPC)",101 % of control
same,T/C,"dose: 16.0 mg/kg/injection, schedule: Q01DX009 (ip), vehicle: Klucel (hydroxypropylcellulose) (HPC)",101 % of control
same,T/C,"dose: 32.0 mg/kg/injection, schedule: Q01DX009 (ip), vehicle: Klucel (hydroxypropylcellulose) (HPC)",108 % of control
O=C1C=CC2(C=C1)OCC(=O)O2,T/C,[14],100 % of control
same,T/C,[15],97 % of control
same,T/C,[16],96 % of control
O=C(O)Cc1cn2cc(Br)ccc2n1,T/C,"dose: 100.0 mg/kg/injection, schedule: Q01DX001 (ip), vehicle: saline with Tween-80",105 % of control
same,T/C,"dose: 200.0 mg/kg/injection, schedule: Q01DX001 (ip), vehicle: saline with Tween-80",109 % of control
same,T/C,"dose: 400.0 mg/kg/injection, schedule: Q01DX001 (ip), vehicle: saline with Tween-80",104 % of control
COC(=O)[C@@H]1CC/C(=C(\C#N)C(=O)OC(C)(C)C)N1,T/C,[14],95 % of control
same,T/C,[15],96 % of control
same,T/C,[16],91 % of control
O=C1/C(=C/c2ccccc2)CCCC12C(c1ccccc1)N2C1CCCCC1 (stereo not given),T/C,"dose: 100.0 mg/kg/injection, schedule: Q04DX002 (ip), vehicle: Klucel (hydroxypropylcellulose) (HPC)",93 % of control
same,T/C,"dose: 200.0 mg/kg/injection, schedule: Q04DX002 (ip), vehicle: Klucel (hydroxypropylcellulose) (HPC)",86 % of control
same,T/C,"dose: 400.0 mg/kg/injection, schedule: Q04DX002 (ip), vehicle: Klucel (hydroxypropylcellulose) (HPC)",92 % of control
O=C1c2cc3cc4ccccc4cc3cc2C(=O)c2c(O)ccc(O)c21,T/C,"dose: 50.0 mg/kg/injection, schedule: Q04DX002 (ip), vehicle: saline with Tween-80",90 % of control
same,T/C,[17],91 % of control
same,T/C,[18],99 % of control
N#C/C(=C1/NC(=O)c2ccccc21)c1nc2ccccc2n1CCO,T/C,[19],91 % of control
same,T/C,[20],92 % of control
same,T/C,[21],89 % of control
same,T/C,[12],89 % of control
CCOC(=O)C1(c2ccccc2)CCCN(C)CC1 (stereo not given),T/C,"dose: 25.0 mg/kg/injection, schedule: Q04DX003 (ip), vehicle: saline",107 % of control
same,T/C,"dose: 50.0 mg/kg/injection, schedule: Q04DX003 (ip), vehicle: saline",107 % of control
same,T/C,[5],98 % of control
OCC1(CO)C(O)C2CCN1CC2 (stereo not given),T/C,"dose: 100.0 mg/kg/injection, schedule: Q04DX003 (ip), vehicle: Klucel (hydroxypropylcellulose) (HPC)",108 % of control
same,T/C,"dose: 200.0 mg/kg/injection, schedule: Q04DX003 (ip), vehicle: Klucel (hydroxypropylcellulose) (HPC)",110 % of control
same,T/C,"dose: 400.0 mg/kg/injection, schedule: Q04DX003 (ip), vehicle: Klucel (hydroxypropylcellulose) (HPC)",108 % of control
CC(=O)c1c(C(=O)O)n([O-])c2ccccc2[n+]1=O,T/C,[3],97 % of control
same,T/C,[4],94 % of control
same,T/C,[13],112 % of control
CCCCCCCCCCCCCCCCCC(=O)Nc1ccn(C2OC(CO)C(O)C2O)c(=O)n1 (stereo not given),T/C,[19],196 % of control
same,T/C,[20],177 % of control and 227 % of control (2×)
same,T/C,[21],113 % of control and 267 % of control and 270 % of control
same,T/C,[10],195 % of control and 267 % of control and 270 % of control
same,T/C,[11],86 % of control and 92 % of control
O=C(O)c1ccc(CCCBr)cc1,T/C,[11],105 % of control
same,T/C,[12],100 % of control
same,T/C,"dose: 400.0 mg/kg/injection, schedule: Q01DX009 (ip), vehicle: saline with Tween-80",97 % of control
CCCCc1c(O)c(N=NC(=O)C[N+](C)(C)C)c2ccccc2c1O,T/C,[3],104 % of control
same,T/C,[4],110 % of control
same,T/C,[13],108 % of control
Nc1ncnc2c1CCc1ccccc1-2,T/C,[17],107 % of control
same,T/C,[18],112 % of control
Cc1ccc2c(C(=O)O)cc(N)cc2n1,T/C,"dose: 2.0 mg/kg/injection, schedule: Q01DX005 (ip), vehicle: Klucel (hydroxypropylcellulose) (HPC)",100 % of control
same,T/C,"dose: 4.0 mg/kg/injection, schedule: Q01DX005 (ip), vehicle: Klucel (hydroxypropylcellulose) (HPC)",104 % of control
same,T/C,"dose: 7.5 mg/kg/injection, schedule: Q01DX005 (ip), vehicle: Klucel (hydroxypropylcellulose) (HPC)",102 % of control
same,T/C,"dose: 8.0 mg/kg/injection, schedule: Q01DX005 (ip), vehicle: Klucel (hydroxypropylcellulose) (HPC)",97 % of control
C=CCC(OC(=O)c1ccc(Br)cc1)C1(C)OC1C(C)C1CC(O)(C(OC)OC)NC(=O)O1 (stereo not given),T/C,"dose: 0.25 mg/kg/injection, schedule: Q01DX009 (ip), vehicle: saline + alcohol",108 % of control
same,T/C,"dose: 0.5 mg/kg/injection, schedule: Q01DX009 (ip), vehicle: saline + alcohol",107 % of control
same,T/C,"dose: 1.0 mg/kg/injection, schedule: Q01DX009 (ip), vehicle: saline + alcohol",115 % of control
